One data set concerns the target T1, D4 receptors (Homo sapiens, UniProt P21917).
T1 construct: expressed in transfected cells; host or cells: COS cells
T1 sequence (P21917 1-419): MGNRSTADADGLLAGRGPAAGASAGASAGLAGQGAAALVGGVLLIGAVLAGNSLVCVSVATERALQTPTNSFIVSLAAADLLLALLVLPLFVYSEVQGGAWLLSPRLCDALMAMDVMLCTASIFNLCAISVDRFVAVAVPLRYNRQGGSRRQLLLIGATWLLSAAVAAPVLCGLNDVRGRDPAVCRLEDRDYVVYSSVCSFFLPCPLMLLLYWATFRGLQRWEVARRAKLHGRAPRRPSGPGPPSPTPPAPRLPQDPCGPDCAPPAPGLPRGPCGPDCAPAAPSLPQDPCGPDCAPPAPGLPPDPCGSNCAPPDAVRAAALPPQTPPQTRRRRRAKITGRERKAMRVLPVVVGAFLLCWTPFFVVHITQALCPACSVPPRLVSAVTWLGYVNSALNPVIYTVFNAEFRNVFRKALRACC
Description: D4 receptor binding assay (3H-YM 09151-2 displacement). As to the method: (§1) Pellets of COS cells containing recombinantly produced D2 or D4 receptors from human are used for the assays. The sample is homogenized in 100 volumes (w/vol) of 0.05 M Tris HCl buffer at 4° C. and pH 7.4. The sample is then centrifuged at 30,000×g and resuspended and rehomogenized. The sample is then centrifuged as described above and the final tissue sample is frozen until use. The tissue is resuspended 1:20 (wt/vol) in 0.05 M Tris HCl buffer containing 100 mM NaCl.
(§2) Incubations are carried out at […]. and contain 0.4 ml of tissue sample, 0.5 nM 3H-YM 09151-2 and the compound of interest in a total incubation mixture of 1.0 ml. Nonspecific binding is defined as that binding found in the presence of 1 mM spiperone; without further additions, nonspecific binding is less than 20% of total binding. Representative binding characteristics for compounds of the invention for the D2 and D4 receptor subtypes are shown in Table 2 for cloned human dopamine receptors. Typically, the compounds of the invention have similar binding profiles.

A further data set concerns the target T2, D2 receptors (Homo sapiens, UniProt P14416).
T2 construct: expressed in transfected cells; host or cells: COS cells
Kind of data set: D2 receptor binding assay (3H-YM 09151-2 displacement). The method, then:
as §1, §2

From patent publication US6656943B2, “1-phenyl-4-benzlpiperazines: dopamine receptor subtype specific ligands” (Neurogen Corporation, priority 1997, dated 2003) come the findings set out here.

Structures can show the parent of a compound that is named as a salt.

T2 sequence (P14416 whole entry): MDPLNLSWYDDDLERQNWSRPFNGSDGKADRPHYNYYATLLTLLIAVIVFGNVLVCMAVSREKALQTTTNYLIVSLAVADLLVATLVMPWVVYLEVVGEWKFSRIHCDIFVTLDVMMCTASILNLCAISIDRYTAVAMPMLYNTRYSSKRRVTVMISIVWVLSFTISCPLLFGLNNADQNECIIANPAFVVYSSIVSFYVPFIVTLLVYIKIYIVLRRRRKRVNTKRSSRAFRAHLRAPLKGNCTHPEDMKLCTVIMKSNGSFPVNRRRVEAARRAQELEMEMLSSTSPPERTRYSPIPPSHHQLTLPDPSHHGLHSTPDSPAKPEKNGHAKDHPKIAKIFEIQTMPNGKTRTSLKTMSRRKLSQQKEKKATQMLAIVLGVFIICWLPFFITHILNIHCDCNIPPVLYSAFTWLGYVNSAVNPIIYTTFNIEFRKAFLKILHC

`Br.Br.Clc1ccc(CN2CCN(c3cccc(Cl)c3)CC2)cc1` came in with a melting point of 238 to 240 °C.

Molecule `Clc1ccc(CN2CCN(c3ccccc3Cl)CC2)cc1.O=C(O)C(=O)O.O=C(O)C(=O)O` had a melting point of 203 to 204 °C.

For `Clc1ccc(CN2CCN(c3ccc(Cl)c(Cl)c3)CC2)cc1`, the melting point was 82 to 83 °C.

Turning to `Cc1ccc(N2CCN(Cc3ccc(Cl)cc3)CC2)cc1.O=C(O)C(=O)O.O=C(O)C(=O)O`, the melting point lay within 204 to 206 °C.

`Cc1cccc(N2CCN(Cc3ccc(Cl)cc3)CC2)c1.O=C(O)C(=O)O.O=C(O)C(=O)O` yielded a melting point of 233 to 235 °C.

For the molecule `Cc1ccccc1N1CCN(Cc2ccc(Cl)cc2)CC1.O=C(O)C(=O)O.O=C(O)C(=O)O`, the melting point is 205 to 206 °C.

`COc1ccccc1N1CCN(Cc2ccc(Cl)cc2)CC1.O=C(O)C(=O)O.O=C(O)C(=O)O` came in with a melting point of 217 to 220 °C.

`CCOc1ccc(N2CCN(Cc3ccc(Cl)cc3)CC2)cc1.Cl.Cl` registered a melting point of 235 to 237 °C.

With `Br.Br.CCOc1ccccc1N1CCN(Cc2ccc(Cl)cc2)CC1`, the melting point lay in the range of 215 to 217 °C.

On to `Clc1ccc(CN2CCN(c3ccccc3)CC2)cc1.O=C(O)C(=O)O.O=C(O)C(=O)O`, for which the melting point lay within 228 to 231 °C.

In turn, `Cc1ccc(CN2CCN(c3cccc(Cl)c3)CC2)cc1.O=C(O)C(=O)O.O=C(O)C(=O)O` registered a melting point of 199 to 200 °C.

Molecule `Cc1ccc(N2CCN(Cc3ccc(Cl)cc3)CC2)cc1C` (as salt: hydrochloride) [Compound 2, 1-(3,4-dimethylphenyl)-4-(4-chlorobenzyl)piperazine dihydrochloride] displayed a melting point of 225 to 228 °C.

Take `COc1ccc(N2CCN(Cc3ccc(Cl)cc3)CC2)cc1` (as salt: oxalate) [Compound 3, 1-(4-methoxyphenyl)-4-(4-chlorobenzyl)piperazine dioxalate]: the melting point lay in the range of 211 to 212 °C.

As to `Clc1ccc(CN2CCN(c3ccc(Cl)cc3)CC2)cc1` [Compound 1, 1-(4-Chlorophenyl)-4-(4-chlorobenlzyl)piperazine Dihydrochloride], the Ki is 5 nM on D4 receptors and > 1000 nM at D2 receptors.

On to `Cc1ccc(N2CCN(Cc3ccc(Cl)cc3)CC2)cc1C` [Compound 2, 1-(3,4-dimethylphenyl)-4-(4-chlorobenzyl)piperazine dihydrochloride], for which the figures for the Ki at D4 receptors and on D2 receptors were 16 nM and > 600 nM, respectively.

`COc1ccc(N2CCN(Cc3ccc(Cl)cc3)CC2)cc1` [Compound 3, 1-(4-methoxyphenyl)-4-(4-chlorobenzyl)piperazine dioxalate]: the Ki is 5 nM at D4 receptors and > 1000 nM on D2 receptors.

As to `Cc1ccc(CN2CCN(c3ccc(Cl)cc3)CC2)cc1` [Compound 4, 1-(4-chlorophenyl)-4-(4-methylbenzyl)piperazine dihydrobromide], the Ki on D4 receptors is 15 nM; at D2 receptors, > 300 nM.
